Results reported in patent US20140357713A1, “ANTIMICROBIAL COMPOUNDS AND METHODS OF USE” (NexMed Holdings, Inc., priority 2012, published 2014).
Read-outs that look alike come from different tables or passages of the source.

Key:
[1] = Solubility (Sol., Table 1); assay type: physicochemical
[2] = system: Escherichia coli (ATCC 25922); assay: Minimum inhibitory concentration (MIC) assay, Example 33; assay type: cell-based; settings: Escherichia coli
Procedure, shortened: (§1)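 Broth microdilution per CLSI guidelines in CAMHB, with 2-fold serial compound dilutions. Inoculum was set to a 0.5 McFarland standard, diluted 1:100 to twice the test density, then mixed 1:2 with drug. Plates were incubated at 35° C and the MIC read per CLSI.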

[3] = system: Pseudomonas aeruginosa (ATCC 27853); assay: as above; assay type: cell-based; settings: Pseudomonas aeruginosa
Procedure, shortened: as §1

Aspergillus niger = assay: Extended time kill study, Example 34 (0 to 24 h); assay type: cell-based
Method: (§2) Time kill studies. Strain suspensions were prepared as described above for the MIC test, and strain suspensions and compound solutions were mixed in the same volume. Samples were removed at specified times including 0 min, 30 sec, 1 min and 5 mins, were diluted in the test medium and streaked on agar. Colonies were counted after 24 to 48 hrs of incubation.
(§3) The time kill studies of Example 33 were extended for five compounds (Nex-59, Nex-60, Nex-61, Nex-62, and Nex-88) using the same methods at longer time periods and at higher multiples of MIC. Nex-88 is a code number for DDAIP.HCl from a different supplier.

Candida albicans = assay: Extended time kill study, Example 34 (0 to 24 h); assay type: cell-based
Method: as §2, §3

Pseudomonas aeruginosa = assay: Extended time kill study, Example 34 (0 to 24 h); assay type: cell-based
Method: as §2, §3

## CCCCCCCCCCCCOC(=O)C(C)NC(C)C.Cl (stereo not shown) [Nex-60, Dodecyl 2-(isopropylamino)propanoate hydrochloride]
[1]
  Sol.: 46%
[2]; ATCC25922, Table 19 summary of Example 33 and Example 35, read-out: MIC
  MIC: 3130 µg/mL
[2]; ATCC25922, n = 1, read-out: MIC E. coli
  MIC: 3130 µg/mL
[2]; ATCC25922, n = 2, read-out: MIC E. coli
  MIC: 3130 µg/mL
[3]; ATCC27853, Table 19 summary, read-out: MIC
  MIC: 6250 µg/mL
[3]; ATCC27853, n = 1, read-out: MIC P. aeruginosa
  MIC: 6250 µg/mL
[3]; ATCC27853, n = 2, read-out: MIC P. aeruginosa
  MIC: 6250 µg/mL
Aspergillus niger; 1 × MIC, 1 h
  Viable counts in Log10 CFU/mL: 4.60 Log10 CFU/mL
Aspergillus niger; 1 × MIC, 2 h
  Viable counts in Log10 CFU/mL: 4.78 Log10 CFU/mL
Aspergillus niger; 1 × MIC, 4 h
  Viable counts in Log10 CFU/mL: 4.60 Log10 CFU/mL
Aspergillus niger; 1 × MIC, 6 h
  Viable counts in Log10 CFU/mL: 4.30 Log10 CFU/mL
Aspergillus niger; 1 × MIC, 24 h
  Viable counts in Log10 CFU/mL: 3.81 Log10 CFU/mL
Aspergillus niger; 1 × MIC, 0 h
  Viable counts in Log10 CFU/mL: 5.52 Log10 CFU/mL
Aspergillus niger; 2 × MIC, 1 h
  Viable counts in Log10 CFU/mL: 4.30 Log10 CFU/mL
Aspergillus niger; 2 × MIC, 2 h
  Viable counts in Log10 CFU/mL: 4.78 Log10 CFU/mL
Aspergillus niger; 2 × MIC, 4 h
  Viable counts in Log10 CFU/mL: 3.85 Log10 CFU/mL
Aspergillus niger; 2 × MIC, 6 h
  Viable counts in Log10 CFU/mL: 3.78 Log10 CFU/mL
Aspergillus niger; 2 × MIC, 24 h
  Viable counts in Log10 CFU/mL: 4.30 Log10 CFU/mL
Aspergillus niger; 2 × MIC, 0 h
  Viable counts in Log10 CFU/mL: 5.47 Log10 CFU/mL
Aspergillus niger; 4 × MIC, 1 h
  Viable counts in Log10 CFU/mL: 4.00 Log10 CFU/mL
Aspergillus niger; 4 × MIC, 2 h
  Viable counts in Log10 CFU/mL: 4.48 Log10 CFU/mL
Aspergillus niger; 4 × MIC, 4 h
  Viable counts in Log10 CFU/mL: 3.60 Log10 CFU/mL
Aspergillus niger; 4 × MIC, 6 h
  Viable counts in Log10 CFU/mL: 3 Log10 CFU/mL
Aspergillus niger; 4 × MIC, 24 h
  Viable counts in Log10 CFU/mL: <2 Log10 CFU/mL
Aspergillus niger; 4 × MIC, 0 h
  Viable counts in Log10 CFU/mL: 5.60 Log10 CFU/mL
Candida albicans; 1 × MIC, 1 h
  Viable counts in Log10 CFU/mL: 5.51 Log10 CFU/mL
Candida albicans; 1 × MIC, 2 h
  Viable counts in Log10 CFU/mL: 5.50 Log10 CFU/mL
Candida albicans; 1 × MIC, 4 h
  Viable counts in Log10 CFU/mL: 5.18 Log10 CFU/mL
Candida albicans; 1 × MIC, 6 h
  Viable counts in Log10 CFU/mL: 5.09 Log10 CFU/mL
Candida albicans; 1 × MIC, 24 h
  Viable counts in Log10 CFU/mL: >6 Log10 CFU/mL
Candida albicans; 1 × MIC, 0 h
  Viable counts in Log10 CFU/mL: 5.56 Log10 CFU/mL
Candida albicans; 2 × MIC, 1 h
  Viable counts in Log10 CFU/mL: 3.30 Log10 CFU/mL
Candida albicans; 2 × MIC, 2 h
  Viable counts in Log10 CFU/mL: 3.00 Log10 CFU/mL
Candida albicans; 2 × MIC, 4 h
  Viable counts in Log10 CFU/mL: 3.00 Log10 CFU/mL
Candida albicans; 2 × MIC, 6 h
  Viable counts in Log10 CFU/mL: <2.70 Log10 CFU/mL
Candida albicans; 2 × MIC, 24 h
  Viable counts in Log10 CFU/mL: <1 Log10 CFU/mL
Candida albicans; 2 × MIC, 0 h
  Viable counts in Log10 CFU/mL: 5.51 Log10 CFU/mL
Candida albicans; 4 × MIC, 1 h
  Viable counts in Log10 CFU/mL: 3.78 Log10 CFU/mL
Candida albicans; 4 × MIC, 2 h
  Viable counts in Log10 CFU/mL: 3.30 Log10 CFU/mL
Candida albicans; 4 × MIC, 4 h
  Viable counts in Log10 CFU/mL: 3.00 Log10 CFU/mL
Candida albicans; 4 × MIC, 6 h
  Viable counts in Log10 CFU/mL: <2.70 Log10 CFU/mL
Candida albicans; 4 × MIC, 24 h
  Viable counts in Log10 CFU/mL: <1 Log10 CFU/mL
Candida albicans; 4 × MIC, 0 h
  Viable counts in Log10 CFU/mL: 5.62 Log10 CFU/mL
Pseudomonas aeruginosa; 1 × MIC, 1 h
  Viable counts, Pseudomonas aeruginosa time kill study: <1 Log10 CFU/mL
Pseudomonas aeruginosa; 1 × MIC, 2 h
  Viable counts, Pseudomonas aeruginosa time kill study: <1 Log10 CFU/mL
Pseudomonas aeruginosa; 1 × MIC, 4 h
  Viable counts, Pseudomonas aeruginosa time kill study: <1 Log10 CFU/mL
Pseudomonas aeruginosa; 1 × MIC, 6 h
  Viable counts, Pseudomonas aeruginosa time kill study: <1 Log10 CFU/mL
Pseudomonas aeruginosa; 1 × MIC, 24 h
  Viable counts, Pseudomonas aeruginosa time kill study: <1 Log10 CFU/mL
Pseudomonas aeruginosa; 1×MIC, time 0
  Viable counts, Pseudomonas aeruginosa time kill study: 5.30 Log10 CFU/mL
Pseudomonas aeruginosa; 2 × MIC, 1 h
  Viable counts, Pseudomonas aeruginosa time kill study: <1 Log10 CFU/mL
Pseudomonas aeruginosa; 2 × MIC, 2 h
  Viable counts, Pseudomonas aeruginosa time kill study: <1 Log10 CFU/mL
Pseudomonas aeruginosa; 2 × MIC, 4 h
  Viable counts, Pseudomonas aeruginosa time kill study: <1 Log10 CFU/mL
Pseudomonas aeruginosa; 2 × MIC, 6 h
  Viable counts, Pseudomonas aeruginosa time kill study: <1 Log10 CFU/mL
Pseudomonas aeruginosa; 2 × MIC, 24 h
  Viable counts, Pseudomonas aeruginosa time kill study: <1 Log10 CFU/mL
Pseudomonas aeruginosa; 2 × MIC, time 0
  Viable counts, Pseudomonas aeruginosa time kill study: 5.28 Log10 CFU/mL
Pseudomonas aeruginosa; 4 × MIC, 1 h
  Viable counts, Pseudomonas aeruginosa time kill study: <1 Log10 CFU/mL
Pseudomonas aeruginosa; 4 × MIC, 2 h
  Viable counts, Pseudomonas aeruginosa time kill study: <1 Log10 CFU/mL
Pseudomonas aeruginosa; 4 × MIC, 4 h
  Viable counts, Pseudomonas aeruginosa time kill study: <1 Log10 CFU/mL
Pseudomonas aeruginosa; 4 × MIC, 6 h
  Viable counts, Pseudomonas aeruginosa time kill study: <1 Log10 CFU/mL
Pseudomonas aeruginosa; 4 × MIC, 24 h
  Viable counts, Pseudomonas aeruginosa time kill study: <1 Log10 CFU/mL
Pseudomonas aeruginosa; 4 × MIC, time 0
  Viable counts, Pseudomonas aeruginosa time kill study: 5.31 Log10 CFU/mL
